Measurements from patent US7235258B1, “Sustained-release formulations for treating CNS-mediated disorders” (NPS Pharmaceuticals, Inc., priority 1999, dated 2007).
Like-named read-outs stand apart in the source and are kept apart here.

How the values were obtained:
[1] = Ascending single oral dose pharmacokinetic study of isovaleramide (oral solution) in healthy subjects; assay type: in vivo, human; details: for half-life / Cmax / CL/F: human; for CL/F: arithmetic mean
Description: (§1) Isovaleramide (NPS 1776) was orally administered in a double-blind, placebo-controlled, ascending single dose study conducted in two groups of healthy young male Caucasian subjects and one group of healthy young female Caucasian subjects to investigate the safety, tolerability, pharmacodynamics and pharmacokinetics of the drug. Various amounts of the drug were dissolved in 250 mL of a flavored soft drink (powdered soft drink diluted in mineral water) and administered as an oral solution.
Isovaleramide administered orally in the absence of a sustained-release formulation was rapidly absorbed and rapidly eliminated in human subjects (Table 1). Systemic exposure to the drug increased with increasing oral doses from 100 to 1600 mg in male subjects.

[2] = Safety and tolerability in the ascending single oral dose study; assay type: in vivo, human
Description: as §1
The most common adverse events were polyuria and headache. There were no dose-related trends in the incidence or severity of adverse events, or any difference in the incidence or severity of adverse events reported. Similar results were obtained in a 1200 mg dose level female group administered the drug for gender comparison.

[3] = Water solubility of the drug (statement); assay type: physicochemical

With `CC(C)CC(N)=O` [Isovaleramide] the “time at which blood level falls below the effective concentration” value ([1]; 1200 mg dose, assumed effective target concentration about 10 μg/mL) was “about 5 hours”, the half-life ([1]; female, plasma, females, oral, 1200 mg, read-out: t½ (converted)) was 1.89 h and the Cmax ([1]; blood, oral, 1200 mg, read-out: initial maximum blood concentration (Cmax)) was about 27000 ng/mL. The half-life ([1]; plasma, humans, oral, no sustained-release formulation, doses 100 to 1600 mg, read-out: half-life (converted)) was about 2.5 h, the CL/F ([1]; plasma, male humans, oral, 100 mg) was 3.83 mL/min/kg and the Cmax ([1]; plasma, male humans, oral, 100 mg, geometric mean, read-out: Cmax) was 1510 ng/mL. For the same compound, the half-life ([1]; plasma, male humans, oral, 100 mg, harmonic mean, read-out: t1/2 (converted)) was 2.7 h, the CL/F ([1]; plasma, male humans, oral, 200 mg) was 3.08 mL/min/kg and the Cmax ([1]; plasma, male humans, oral, 200 mg, geometric mean, read-out: Cmax) was 3320 ng/mL. The half-life ([1]; plasma, male humans, oral, 200 mg, harmonic mean, read-out: t1/2 (converted)) was 2.61 h, the CL/F ([1]; plasma, male humans, oral, 400 mg) was 3.13 mL/min/kg and the Cmax ([1]; plasma, male humans, oral, 400 mg, geometric mean, read-out: Cmax) was 6840 ng/mL. It also gave a half-life ([1]; plasma, male humans, oral, 400 mg, harmonic mean, read-out: t1/2 (converted)) of 2.5 h, a CL/F ([1]; plasma, male humans, oral, 800 mg) of 2.73 mL/min/kg and a Cmax ([1]; plasma, male humans, oral, 800 mg, geometric mean, read-out: Cmax) of 16400 ng/mL. The half-life ([1]; plasma, male humans, oral, 800 mg, harmonic mean, read-out: t1/2 (converted)) was 2.35 h, the CL/F ([1]; plasma, male humans, oral, 1200 mg) was 2.47 mL/min/kg and the Cmax ([1]; plasma, male humans, oral, 1200 mg, geometric mean, read-out: Cmax) was 27900 ng/mL. The half-life ([1]; plasma, male humans, oral, 1200 mg, harmonic mean, read-out: t1/2 (converted)) was 2.43 h, the CL/F ([1]; plasma, male humans, oral, 1600 mg) was 2.17 mL/min/kg and the Cmax ([1]; plasma, male humans, oral, 1600 mg, geometric mean, read-out: Cmax) was 39300 ng/mL. The half-life ([1]; plasma, male humans, oral, 1600 mg, harmonic mean, read-out: t1/2 (converted)) was 2.65 h, the “time to maximum drug concentration” value ([1]; humans, oral, all doses) was “less than one hour” and the “time to maximum drug concentration, typical” value ([1]; humans, oral, all doses) was “about 30 minutes”. The “increase in Cmax and AUC relative to increase in dose level” value ([1]; male subjects, oral, 100 to 1600 mg) was “slightly greater than proportional”, the “change in drug concentration in the blood over a 12-hour period” value ([1]; single dose, for a 2.5-hour half-life) was “about 10 fold” and the “changes in vital signs, 12-lead ECG, clinical laboratory assessments or physical examination” value ([2]; all dose levels) was “no clinically significant drug-or dose-related changes”. The tolerability ([2]; oral 100 to 1600 mg, healthy male subjects) was “well tolerated”, the “severity of drug-related adverse events” value ([2]; oral 100 to 1600 mg, few events, most common polyuria and headache) was “all were mild in severity” and the water solubility [3] was “very water soluble”.
